Laboratory results taken from paper PMC12455390, “Three Is Better than One: A Multimetal Complex that Triggers Immunogenic Cell Death” (Angewandte Chemie (International Ed. in English), 2025).
Like-named read-outs stand apart in the source and are kept apart here.

Experiments:
[1] = tested on: reducing enzymes, such as lipoamide dehydrogenase, glutathione reductase, and TrxR; assay type: cell-based
Description: We thus explored several targets in addition to cellular and organelle uptake after 24 h incubation. A lipoate‐to‐dihydrolipoate reduction assay in HCT‐116 cells was used to evaluate the ability of the complexes to inhibit reducing enzymes, such as lipoamide dehydrogenase, glutathione reductase, and TrxR.^[ [25] ^]
In short, HCT-116 cells were harvested and seeded at a density of 10,000 cells/well in 96-well culture plates. Following an overnight incubation at 37°C under a 5% CO2 atmosphere, the medium was replaced, and the cells incubated with 1 µM of each complex for additional 24 hr. Thereafter, the media were removed from each well, which were then washed with 200 μL of HBSS solution. Finally, 100 µL of 5 mM lipoate and 1 mM of DTNB solutions were added to each well. The absorbance of each well at 405 nm was recorded immediately and once every 20 min for one hour using a microplate reader. Plates were covered with aluminum foil between readings.

human TrxR1 = molecular target: T1, human TrxR1 (Homo sapiens, UniProt Q16881); experiment: Isolated TrxR1 inhibition (DTNB assay); assay type: biochemical; conditions: 75 min incubation at 37 °C
T1 construct: purchased SeLENOZYME
T1 sequence (Q16881 1-499 isoform Q16881-5): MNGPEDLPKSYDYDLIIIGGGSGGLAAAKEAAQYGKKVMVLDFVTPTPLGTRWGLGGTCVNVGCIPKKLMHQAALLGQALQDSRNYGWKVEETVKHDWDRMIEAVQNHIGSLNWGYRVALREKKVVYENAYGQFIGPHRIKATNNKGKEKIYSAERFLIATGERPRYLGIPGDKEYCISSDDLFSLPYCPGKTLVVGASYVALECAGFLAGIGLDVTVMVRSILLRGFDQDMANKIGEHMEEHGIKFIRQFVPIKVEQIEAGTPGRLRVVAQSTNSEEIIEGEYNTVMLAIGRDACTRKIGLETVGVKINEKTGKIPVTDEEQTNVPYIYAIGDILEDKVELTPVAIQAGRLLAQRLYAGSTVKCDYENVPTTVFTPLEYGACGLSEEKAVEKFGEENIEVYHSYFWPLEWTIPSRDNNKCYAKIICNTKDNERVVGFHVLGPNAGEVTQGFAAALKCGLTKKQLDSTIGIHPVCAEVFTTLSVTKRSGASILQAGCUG
Description: (§1) A number of gold and ruthenium complexes are known to inhibit members of the TrxR enzyme family.^[ [27] ^] […] We thus sought to evaluate the activity of our gold‐ and ruthenium‐containing complexes against TrxR1 (found in the cytoplasm) and TrxR2 (found in the mitochondria).
(§2) Human TrxR1 and TrxR2 were purchased from SeLENOZYME and inhibition studies were carried out by means of a DTNB assay in 96-well culture plates. Enzymes were diluted to achieve a concentration of 3.58 U mL^−1. The compounds subject to testing were freshly dissolved in DMF. 10 μL aliquots of the enzyme solution and 10 μL of solutions of the compounds at graded concentrations or 10 μL of 1% DMF in PBS (positive control) were added and incubated for 75 min at 37 °C. A second control consisted of 10 µL of the highest concentration of each compound with 10 µL of PBS. After the chosen incubation time, 10 µL of NADPH (10 mM), 160 µL TE buffer (50 mM Tris-HCl, 2 mM EDTA, pH 7.5) and 10 µL ethanolic DTNB (50 mM) were added producing a total reaction volume of 200 µL. After proper mixing, the formation of 5-TNB was monitored with a microplate reader at 405 nm. This was done 10 times at 30 second intervals over the course of about 5 min. A TNB standard curve (0-2 mM in 200 µL TE buffer) was used to calculate the exact DTNB consumed in the reaction with linear region slopes being calculated by plotting A405 vs time (min). The IC50 values representing the concentration of compound serving to decrease the enzymatic activity of the untreated control by 50% were calculated and are given as the mean and standard error of three repeated experiments. The combination index (CI) was calculated using the Chou-Talalay method^6

human TrxR2 = molecular target: T2, human TrxR2 (Homo sapiens, UniProt Q9NNW7); experiment: Isolated TrxR2 inhibition (DTNB assay); assay type: biochemical; conditions: 75 min incubation at 37 °C
T2 construct: purchased SeLENOZYME
Description: as §1, §2

[2] = tested on: A2780 (ovarian carcinoma); experiment: Antiproliferative MTT assay, A2780; assay type: cell-based, human; conditions: A2780, 72 h incubation
Description: (§3) We examined the antiproliferative activity of the heterometallic complexes 3–5 and compared them against their monometallic constituent components, as well as a physical 1:1:1 mixture of 1 + Oxa + 2 after 72 h incubation across a panel of five cancer cell lines: A2780 (ovarian carcinoma), A2780cis (ovarian carcinoma resistant to cisplatin, also referred to as A2780CP), CT26 WT (murine colorectal carcinoma), A375 (melanoma), and PC9 (non‐small cell lung cancer).
(§4) A375 melanoma cells (5000 cells/well), PC9 […] cells (5000 cells/well), CT26 WT murine colon carcinoma cells (5000 cells/well), A2780 ovarian carcinoma cells (5000 cells/well), and A2780cis cisplatin-resistant ovarian carcinoma cells (7000 cells/well), were seeded in flat-bottom 96-well plates in their respective cell culture media (100 µL) and incubated at 37°C in a 5% CO2 environment for 24 h. After that, the media were replaced with the fresh media. Stock solutions of the compounds in DMSO or in cell culture medium (for Oxa) were freshly prepared and diluted with the respective cell culture medium to graded concentrations (final concentration of DMSOmax: 0.5% v/v). After 72 h of exposure, the media were removed and 100 µL of 0.5 mg/mL 3-(4,5-dimethylthiazol-2-yl)-2,5-diphenyl tetrazolium bromide (MTT) in DMEM or RPMI were added and the plate in question further incubated for an additional 1 h. The media containing the MTT solution was removed and the resulting formazan crystals were dissolved in 100 µL DMSO. The absorbance of the solution in each well was read at 570 nm using a BioTek Cytation3 plate reader. The IC50 value, which is the drug concentration needed for 50% reduction in survival, based on the survival curve, was calculated by fitting nonlinear curves in GraphPad Prism 5 Ver 5.03, using a normalized response variable slope model constructed by plotting cell viability (%) vs log of the concentration of the complex in question in nM. The results are presented as the mean values of three independent experiments.

[3] = tested on: A2780cis (ovarian carcinoma resistant to cisplatin); experiment: Antiproliferative MTT assay, A2780cis; assay type: cell-based, human; conditions: A2780 CisR, 72 h incubation
Description: as §3, §4

[4] = tested on: CT26 WT (murine colorectal carcinoma); experiment: Antiproliferative MTT assay, CT26 WT; assay type: cell-based; conditions: CT 26 WT, 72 h incubation
Description: as §3, §4

A375 (melanoma) = experiment: Antiproliferative MTT assay, A375; assay type: cell-based, human; conditions: A375, 72 h incubation
Description: as §3, §4

[5] = tested on: PC9 (non-small cell lung cancer); experiment: Antiproliferative MTT assay, PC9; assay type: cell-based, human; conditions: PC9, 72 h incubation
Description: as §3, §4

CT26 cells = experiment: Extracellular HMGB1 release (ELISA); assay type: cell-based, murine; conditions: IC50 concentrations, 24 h
Description: Oxa alone produced a modest effect, consistent with its known ICD profile.^[ [5] ^]
1 x 10^6 CT-26 cells were seeded in a 6-well plate (2 mL RPMI-1640). […] The HMGB1 release of the supernatant was quantified using HMGB1 Detection Kit ELISA (Chondrex, Catalog 6010) according to the manufacturer’s instructions.

HCT-116 cells = experiment: Total cellular metal accumulation (ICP-MS); assay type: cell-based; conditions: 1 µM, 24 h
Description: It is important to note the TrxR assay was performed using isolated enzymes. […] Recognizing this, we incubated HCT‐116 cells with 1 µM of complexes 1–5 for 24 h and quantified the total metal content via ICP‐MS (Figure 4a).
1 x 10^6 HCT-116 cells were seeded in a 6-well plate (2 mL RPMI-1640). After incubating overnight, the medium was replaced, and the cells were treated with the test compounds (1 µM) for 24 h. The resulting cell monolayers were washed twice with cold PBS, harvested and counted in PBS for a total volume of 400 µL. Samples were divided, and each was mineralized with 1 mL aqua regia and evaporated to dryness on a 110 °C hot plate overnight. Later, 1 mL of 2% HCl + 1% thiourea was added to each vial. Samples were quantified via ICP-MS. Metal accumulation levels were determined using the relative isotopic prevalence of ^195Pt, ^101Ru, and ^197Au.

T2 sequence (Q9NNW7 37-524): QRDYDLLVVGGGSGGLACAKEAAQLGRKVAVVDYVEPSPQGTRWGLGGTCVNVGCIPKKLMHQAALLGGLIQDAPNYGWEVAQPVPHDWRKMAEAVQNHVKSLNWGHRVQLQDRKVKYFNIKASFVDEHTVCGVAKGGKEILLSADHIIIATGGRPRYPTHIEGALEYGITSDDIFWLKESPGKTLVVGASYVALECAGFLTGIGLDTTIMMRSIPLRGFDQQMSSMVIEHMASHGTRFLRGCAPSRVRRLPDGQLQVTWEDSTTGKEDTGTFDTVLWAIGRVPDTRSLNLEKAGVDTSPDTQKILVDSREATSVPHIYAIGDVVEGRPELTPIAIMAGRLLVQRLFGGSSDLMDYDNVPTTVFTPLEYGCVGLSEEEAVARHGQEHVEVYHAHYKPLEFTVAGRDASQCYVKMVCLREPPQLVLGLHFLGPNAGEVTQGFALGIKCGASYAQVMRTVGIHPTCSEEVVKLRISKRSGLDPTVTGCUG

Structure (SMILES) | dihydrolipoate production relative to control ([1]; HCT-116 cells, 1 µM, 24 h) | IC50 (human TrxR1) [µM] | IC50 (human TrxR2) [µM] | IC50 [2] [µM] | IC50 [3] [µM] | IC50 [4] [µM] | IC50 (A375 (melanoma)) [µM] | IC50 [5] [µM] | Extracellular HMGB1 release (CT26 cells) | dihydrolipoate production relative to control [1] | total cellular metal uptake (HCT-116 cells)
CC(=O)OC[C@H]1O[C@@H]([S-])[C@H](OC(C)=O)[C@@H](OC(C)=O)[C@@H]1OC(C)=O.CCP(CC)CC.[Au+] [Auranofin, reference compound] | 55% | 0.06 ± 0.02 | 0.22 ± 0.04 | – | – | – | – | – | – | – | –
O=C1[O][Pt]2([NH][C@@H]3CCCC[C@H]3[NH]2)[O]C1=O [Oxa, oxaliplatin, reference compound] | activity similar to untreated cells (control) | 25.6 ± 3.7 | 28.2 ± 2.9 | 0.29 ± 0.03 | 1.01 ± 0.22 | 20 ± 1.4 | 3.16 ± 0.49 | 8.2 ± 1 | modest effect | – | –
Cc1cc(C)c(-n2ccn(CCOC(=O)NCCN)[c]2=[Au-3]=[c]2n(-c3c(C(C)C)cccc3C(C)C)c3c(n2-c2c(C(C)C)cccc2C(C)C)C(=O)c2ccccc2C3=O)c(C)c1.O=C([O-])C(F)(F)F [Complex 2, (1-(2-(((2-Aminoethyl)carbamoyl)oxy)ethyl)-3-mesityl-1,3-dihydro-2H-2λ3-imidazol-2-yl)(1,3-bis(2,6-diisopropylphenyl)-4,9-dioxo-1,3,4,9-tetrahydro-2H-2λ3-naphtho[2,3-d]imidazol-2-yl)gold (I) TFA salt] | 72% | 1.62 ± 0.13 | 1.27 ± 0.21 | 0.34 ± 0.08 | 0.56 ± 0.09 | 14.9 ± 0.4 | 2.48 ± 0.35 | 0.49 ± 0.13 | – | – | –
Cc1ccc(C(C)C)cc1.O=C(O)c1ccc(NC(=S)c2ccccn2)cc1.[Cl-].[Cl][Ru+] [Complex 1, [Chlorido(η6-p-cymene)(N-(4-benzoic acid)-2-pyridinecarbothioamide)ruthenium(II)] chloride] | – | 3.44 ± 0.32 | 4.36 ± 0.41 | 15.7 ± 4.3 | > 40 | > 40 | > 40 | > 40 | – | activity similar to untreated cells (control) | low accumulation of ruthenium
